Measurements published in ChEMBL document CHEMBL1157539, “Thousands of chemical starting points for antimalarial lead identification” (Nature, 2010).

Test system: Plasmodium falciparum
Assay: GSK_TCMDC: Inhibition of Plasmodium falciparum 3D7 in whole erythrocytes, using parasite LDH activity as an index of growth.
Format: functional, organism-based
Conditions: Plasmodium falciparum, 3D7

Row | Compound | XC50 [nM]
1 | CN1CCN(CCCN(Cc2csc(-c3ccc(CNCc4ccccc4)cc3)n2)C(=O)Nc2cc(Cl)cc(Cl)c2)CC1 | 700
2 | N=C(N)NN=Cc1c2ccccc2c(Cl)c2cc(Cl)ccc12 | 791
3 | COc1ccc(CNCCc2cccs2)cc1-c1ccc(S(=O)(=O)NCCN2CCCC2)cc1 | 655
4 | Oc1ccc(CC2CCCN(c3nc(NCCCOc4ccccc4-c4ccccc4)nc(N4CCNCC4)n3)C2)cc1 (centres undefined) | 916
5 | c1ccc2[nH]c(Nc3ccc(Nc4nc5ccccc5[nH]4)cc3)nc2c1 | 783
6 | CCOC(=O)c1c(C)n(-c2ccccc2)c2ccc(O)cc12 | 475
7 | O=C(Nc1cccc(-c2nn3ccccc3c2-c2ccnc(Nc3cccc(C(F)(F)F)c3)n2)c1)c1c(F)cccc1F | 627
8 | O=C(NCCc1ccccc1)N(Cc1cccc(-c2ccc(CNCCc3ccccc3)cc2)c1)C1CCN(Cc2ccccc2)CC1 | 613
9 | COC(=O)c1cccc(CNCc2ccc(-c3cccc(-c4nc5cccc(C)c5[nH]4)c3)cc2)c1 | 306
10 | Cc1ccc(C(=O)Nc2ccc(-c3nc4ccccc4[nH]3)cc2)cc1S(=O)(=O)N1CCOCC1 | 1210
11 | C/C=C/COc1ccc(-c2c(C)[nH]c(C)c(Cl)c2=O)cc1 | 197
12 | CC(CNc1nc(NCC(c2ccccc2)c2ccccc2)c2nc[nH]c2n1)c1ccccc1 (centres undefined) | 948
13 | COc1ccc(NC(=O)Nc2ccc(C)c(-c3ccc(C(=O)NCCN4CCCC4)cc3)c2)cc1 | 902
14 | CCCCCCC(C)(C)c1cc(O)c2c(c1)OC(C)(C)c1ccncc1-2 | 178
15 | O=C(N[C@H]1CCN(CCc2ccc(O[C@H]3CCNC3)c(F)c2)C1)c1ccc(Cl)c(Cl)c1 | 1190
16 | CCC[C@@H]([C@@H](CC(C)C)C(=O)N[C@@H](CCCNc1nccc(C(F)(F)F)n1)C(=O)Nc1nccs1)N(O)C=O | 373
17 | COc1cc2nc(N3CCC(CNCc4ccc(-c5ccc(C(F)(F)F)cc5)cc4)CC3)nc(N)c2cc1OC | 86.9
18 | COc1ccc(Cn2ccc3c4c(N)nc(N)nc4ccc32)cc1 | 3.2
19 | O=C(/C=C/c1ccc(Cl)cc1)NCCCCCN1CCC(c2c[nH]c3ccccc23)CC1 | 838
20 | c1ccc(COc2ccc(C3CCCCC3)cc2)nc1 | 774
21 | COc1ccc2nccc(N3CCN(CCNCc4ccc5c(n4)NC(=O)CO5)CC3)c2n1 | 885
22 | COc1ccc(Nc2nccc(-c3c(-c4cccc(NC(=O)c5c(F)cccc5F)c4)nn4ccccc34)n2)cc1Cl | 284
23 | CCn1c(SCc2ccccc2)nc2c1c(=O)[nH]c(=O)n2C | 241
24 | COc1ccc(-c2cccc(CNC3CCN(C)CC3)c2)cc1S(=O)(=O)NCc1ccccc1 | 874
25 | O=C(NC1CCC(CN2CCC(c3c[nH]c4ccccc34)CC2)CC1)c1[nH]c(=O)[nH]c(=O)c1F (centres undefined) | 796

Row | Compound | XC50 [nM]
26 | CCCCN(CCCC)CCCCCCNc1c2ccccc2nc2ccccc12 | 776
27 | Cc1cc(NCc2ccc(F)cc2)nc2cc(O)ccc12 | 762
28 | NC1CCN(Cc2ccc(-c3ccc(-c4nc5cc(F)ccc5[nH]4)cc3)cc2)C1 (centres undefined) | 184
29 | CN=C(S)NN=C(C)c1ccccn1 | 272
30 | CN(C)CCCNc1c2ccccc2nc2ccccc12 | 1040
31 | COc1ccc(CCNCc2ccc3c(C)cc(N)nc3c2)cc1 | 568
32 | O=C(/C=C/c1ccc([N+](=O)[O-])cc1)N1CCC(NS(=O)(=O)c2ccc(Br)cc2)CC1 | 1050
33 | CCCCCCN1CCC(NCc2ccc(C(F)(F)F)cc2)CC1 | 375
34 | CCCCNCc1ccc(-c2nc(CN(Cc3ccc(Cl)c(Cl)c3)S(=O)(=O)c3ccc(NC(C)=O)cc3)cs2)cc1 | 1030
35 | CN(C)Cc1ccc2cc(NC(=O)c3ccc(-c4ccc(Cl)cc4)cc3)ccc2c1 | 1340
36 | Cc1cc(C)n(-c2nc(Nc3cccc(C(F)(F)F)c3)nc(-n3nc(C)cc3C)n2)n1 | 362
37 | COC(=O)c1ccc(CC(C)NCC(O)c2cccc(Br)c2)cc1 (centres undefined) | 694
38 | COc1ccc2nc(-c3ccccc3)cc(N/N=C/c3ccc([N+](=O)[O-])o3)c2c1 | 202
39 | COc1ccc(CNC(=O)NC2CCN(c3ccnc(Nc4ccc(F)cc4)n3)C2)cc1 (centres undefined) | 842
40 | Cc1ccc(C2CCN(CCCCNC(=O)c3ccc(NC(=O)c4ccc(Cl)cc4)cc3)CC2)c(OCC2CC2)c1 | 887
41 | O=C(NC1CCC(N2CCC(c3nc4ccccc4s3)CC2)CC1)c1cc2ccccc2[nH]1 (centres undefined) | 926
42 | N=C(NCCc1ccc(Cl)c(Cl)c1)c1ccc2ccccc2c1 | 514
43 | Nc1ncnc2c1ncn2C(CO)Cc1ccc(O)cc1 (centres undefined) | 1030
44 | NCCNc1ccnc2cc(Cl)ccc12 | 125
45 | Cc1cc(N2Cc3ccccc3C2)nc(Nc2ccc(S(=O)(=O)N3CCOCC3)cc2)n1 | 1110
46 | CCCNCc1ccc(-c2ccc(CN(C(=O)c3nn(-c4ccccc4)nc3C)C3CCOCC3)cc2)nc1 | 144
47 | CN1CCC(NCc2cccc(-c3cnc(NCc4ccccc4)nc3)c2)CC1 | 965
48 | CNCCCCCCc1ccc(CC(C)NCC(O)c2cccc(Cl)c2)cc1 (centres undefined) | 854
49 | CCC(C)c1ccc(-n2c(Nc3ccccc3)nc3cc(S(N)(=O)=O)ccc32)cc1 (centres undefined) | 1060
50 | CCCCCC(NCCCC)c1ccc(OCCOc2ccc(C(CCCCC)NCCCC)cc2)cc1 (centres undefined) | 1240

Row | Compound | XC50 [nM]
51 | COc1cc2nc(NCCc3ccccc3)nc(NCc3nccs3)c2cc1OC | 532
52 | CCCc1ccc(N2C(N)=NC(N)=NC2(C)C)cc1 | 28.4
53 | COc1ccc(-c2cc(C(=O)N[C@@H](Cc3ccccc3)C(=O)NCCN3CCCCC3)ccc2O)cc1 | 792
54 | COc1ccc(-c2onc(C(F)(F)F)c2-c2ccc(Br)cc2)c(O)c1 | 237
55 | COc1cc(NCC(O)CNc2cc(Cl)nc3ccccc23)nc2ccccc12 (centres undefined) | 416
56 | CCCC(CNCc1cccc(OCC)c1)CNc1cc(=O)c2ccccc2[nH]1 (centres undefined) | 855
57 | COc1ccccc1/C=C/C(=O)NCCC1CCN(CCCCCNC(=O)/C=C/c2ccc(Cl)c(Cl)c2)CC1 | 807
58 | N=C(N)c1ccc(Nc2nccc(Nc3nc(-c4ccccc4)cs3)n2)cc1 | 754
59 | Cc1nc2nc(N)nc(N)c2c(C)c1Cc1ccc(C#N)cc1 | 542
60 | CC(=O)N[C@H](C(=O)Nc1ccc(-c2ccc(-c3nc4cc(C(F)(F)F)ccc4[nH]3)s2)cc1)C(C)C | 1030
61 | COc1ccc(CNc2cc(C)nc3sc4c(c23)CCC2(C4)OCCO2)cc1 | 953
62 | Cc1cccc(-c2nn(-c3ccccc3)c3[nH]c(=O)c(CN4CCSCC4)cc23)c1 | 1010
63 | Cc1cc(N)ncc1-c1ccc(NC(=O)Nc2cc(C(F)(F)F)ccc2F)cc1 | 698
64 | FC(F)(F)COc1c(CNCCCCCCNCc2ccc3ccccc3c2OCC(F)(F)F)ccc2ccccc12 | 761
65 | CCOc1ccc(NC(C)=O)c(O)c1 | 843
66 | O=C(Nc1ccc(Cl)c(-c2nc3ccccc3[nH]2)c1)c1ccc(-c2ccc(Cl)cc2)o1 | 785
67 | COc1ccc(C=NNc2nc3ccccc3[nH]2)cc1O | 915
68 | O=C(NC1CC1)C1CCN(Cc2cc3ccccc3n2Cc2ccc(Cl)cc2)CC1 | 489
69 | CCN(CC)CCNC(=O)c1ccc(NC(=O)c2ccc(-c3cc(NC(=O)CC4CCCC4)ccc3C)cc2)cc1 | 564
70 | CC(C)(C)c1ccc(OC(=O)c2ccc(NC(=O)N[C@@H](Cc3ccc(O)cc3)C(=O)NC3CCN(Cc4ccc(O)cc4)C3)cc2)cc1 (some centres undefined) | 814
71 | COc1ccc2cc(-c3nc(-c4c(Cl)cccc4Cl)[nH]c3-c3ccnc(NCCCN4CCN(C)CC4)c3)ccc2c1 | 708
72 | CCOC(=O)c1cnc2c(OC)cc(OC)c(Cl)c2c1Nc1cccc(C)c1 | 844
73 | Cc1ccc(CNc2ccc3ncc(-c4cccc(C(=O)NCCN(C)C)c4)n3n2)c(C)c1 | 588
74 | COc1ccc(C(=C(C)CC(C)C(=O)O)c2ccccc2)cc1 (centres undefined) | 845
75 | COc1ccc(N2CCN(c3nc(N)c4cc(OC)c(OC)cc4n3)CC2C)cc1 (centres undefined) | 1420

Row | Compound | XC50 [nM]
76 | Cc1ccc(N)cc1-c1nc(NC2CC(C)(C)NC(C)(C)C2)nc2c1ccc(=O)n2-c1c(F)cccc1F | 842
77 | O=C(NCc1ccc(Cl)c(Cl)c1)c1ccc(-c2nc3ccc(Cl)cc3[nH]2)cc1 | 905
78 | CCc1ccc(NC(=O)c2cccc(CN3CCCN(Cc4ccc(OC)cc4)CC3)c2)cc1 | 919
79 | N#Cc1cccc(Nc2ncc3c(-c4cccc(NC(=O)Cc5cccc(Cl)c5)c4)c[nH]c3n2)c1 | 423
80 | Cc1sc(C)c(C(F)(F)F)c1CNCCCNc1cc(=O)c2ccccc2[nH]1 | 1100
81 | CN(Cc1cnc2nc(N)nc(N)c2n1)c1ccc(C(=O)N[C@H](CCC(=O)OC(C)(C)C)C(=O)N[C@@H](CCC(=O)OC(C)(C)C)C(=O)OC(C)(C)C)cc1 | 1020
82 | Cc1nc(N)nc(N)c1-c1ccc(Cl)cc1 | 767
83 | O=C(NCc1ccc(F)cc1)c1cc(Br)cc(N2CCN(c3ccncc3)CC2)c1 | 1230
84 | Cc1[nH]c(C)c(-c2ccc(-c3ccc(OC(F)(F)F)cc3)nc2)c(=O)c1Cl | 201
85 | O=C(Nc1cc(Oc2ccc(O)cc2)cc([N+](=O)[O-])c1)c1cc(-c2ccc(F)cc2)no1 | 955
86 | COC(=O)C(C)(C)c1ccc(CC(C)NCC(O)c2cccc(C(F)(F)F)c2)cc1 (centres undefined) | 837
87 | Cc1ccc(N2CCN(C(=O)c3cccc(-c4cncc5nc(-c6ccco6)n(C)c45)c3)CC2)nc1 | 596
88 | CC(C)CCN(Cc1cncn1Cc1ccccc1F)C(=O)c1cncc(-c2ccccc2)c1 | 791
89 | COC(=O)/C=C/C(=O)N[C@@H]1CC[C@@]2(O)[C@H]3Cc4ccc(O)c5c4[C@@]2(CCN3CC2CC2)[C@H]1O5 | 639
90 | COc1cc(NC(=O)/C=C/c2ccc(-c3ccccc3)cc2)ccc1OCCN(C(C)C)C(C)C | 843
91 | Fc1cccc(-c2ccc3c(c2)CC(NCc2c[nH]c4cnccc24)C3)c1 (centres undefined) | 480
92 | OCC1CCCCN1Cc1cccc(-c2cccc(-c3nc4ccccc4[nH]3)c2)c1 (centres undefined) | 779
93 | Cc1cc(CNCCCCCNCc2ccc(Cl)cc2)ccc1O | 706
94 | COc1cccc(C(=O)C2CC2CN2CC=C(c3c(C)[nH]c4ccccc34)CC2)c1 (centres undefined) | 710
95 | CNc1ccc(CNCc2ccc(-c3ccc(-c4nc5cccc(C)c5[nH]4)s3)cc2)cc1 | 661
96 | O=C(NC1CCN(c2ccnc3cc(Cl)ccc23)C1)c1ccccc1F (centres undefined) | 971
97 | Cc1cccn2c(=O)c3cc(C(=O)NCCN4CCOCC4)c(=N)n(CCc4ccccc4)c3nc12 | 468
98 | Cc1cccc2nc(-c3cccc(-c4ccc(NC(=O)Nc5ccsc5)cc4)c3)[nH]c12 | 116
99 | CCOc1ccc(-c2nonc2NC(=O)c2ccc(Cl)cc2)cc1OCC | 988
